Reference: patent US10125126B2, “N-cycloalkyl-N-[(heterocyclylphenyl)methylene]-(thio)carboxamide derivatives” (BAYER CROPSCIENCE AG, priority 2012, dated 2018)

Columns and labels:
[1] = log P by HPLC on a reversed-phase column (C 18), EEC Directive 79/831 Annex V.A8; type: physicochemical; settings: HPLC on reversed-phase column (C 18), 40° C., 0.1% aqueous formic acid and acetonitrile, linear gradient 10% to 90% acetonitrile
Description: In table 1, the log P values were determined in accordance with EEC Directive 79/831 Annex V.A8 by HPLC (High Performance Liquid Chromatography) on a reversed-phase column (C 18), using the method described below: Temperature: 40° C.; Mobile phases: 0.1% aqueous formic acid and acetonitrile; linear gradient from 10% acetonitrile to 90% acetonitrile. Calibration was carried out using unbranched alkan-2-ones (comprising 3 to 16 carbon atoms) with known log P values (determination of the log P values by the retention times using linear interpolation between two successive alkanones). lambda-max-values were determined using UV-spectra from 200 nm to 400 nm and the peak values of the chromatographic signals.

[2] = test system: Botrytis cinerea; experiment: In vivo preventive test on Botrytis cinerea (grey mould); settings: gherkin plants, 4 to 5 days after contamination
Description: In Vivo Preventive Test on Botrytis cinerea (Grey Mould) […] Gherkin plants (“Vert petit de Paris” variety), sown in starter cups on a 50/50 peat soil pozzolana substrate and grown at 24° C., are treated at the Z11 cotyledon stage by spraying with the active ingredient prepared as described above. Plants, used as controls, are treated with the mixture of acetone/tween/DMSO/water not containing the active material. After 24 hours, the plants are contaminated by spraying the cotyledons with an aqueous suspension of cryopreserved Botrytis cinerea spores (50 000 spores per mL). The spores are suspended in a nutrient solution composed of 10 g/L of PDB, 50 g/L of D-Fructose, 2 g/L of NH4NO3 and 1 g/L of KH2PO4. The contaminated gherkin plants are incubated at 17° C. and at 90% relative humidity. Grading (% of efficacy) is carried out 4 to 5 days after the contamination, in comparison with the control plants.

[3] = test system: Puccinia recondita; experiment: In vivo preventive test on Puccinia recondita (brown rust on wheat); settings: wheat plants, 12 days after contamination
Description: In Vivo Preventive Test on Puccinia recondita (Brown Rust on Wheat) […] Wheat plants (“Scipion” variety), sown in starter cups on a 50/50 peat soil pozzolana substrate and grown at 22° C., are treated at the 1 leaf stage (10 cm height) by spraying with the active ingredient prepared as described above. Plants, used as controls, are treated with the mixture of acetone/tween/DMSO/water not containing the active material. After 24 hours, the plants are contaminated by spraying the leaves with an aqueous suspension of Puccinia recondita spores (100 000 spores per mL). The spores are collected from an infected plant and are suspended in water containing 2.5 mL/L of Tween 80 at 10%. […] Grading (% of efficacy) is carried out 12 days after the contamination, in comparison with the control plants.

[4] = test system: Uromyces appendiculatus; experiment: In vivo preventive test on Uromyces appendiculatus (bean rust); settings: bean plants, 11 days after contamination
Description: In Vivo Preventive Test on Uromyces appendiculatus (Bean Rust) […] Bean plants (“Saxa” variety), sown in starter cups on a 50/50 peat soil pozzolana substrate and grown at 24° C., are treated at the 2 leaf stage (9 cm height) by spraying with the active ingredient prepared as described above. Plants, used as controls, are treated with the mixture of acetone/tween/DMSO/water not containing the active material. After 24 hours, the plants are contaminated by spraying the leaves with an aqueous suspension of Uromyces appendiculatus spores (150 000 spores per mL). The spores are collected from infected plants and are suspended in water containing 2.5 mL/L of Tween 80 at 10%. […] Grading (% of efficacy) is carried out 11 days after the contamination, in comparison with the control plants.

[5] = test system: Pyrenophora teres; experiment: In vivo preventive test on Pyrenophora teres (barley); settings: 100 ppm of active ingredient; barley plants; 14 days after contamination
Description: In Vivo Preventive Test on Pyrenophora teres (Barley) […] Barley plants (“Plaisant” variety), sown in starter cups on a 50/50 peat soil pozzolana substrate and grown at 22° C., are treated at the 1 leaf stage (10 cm height) by spraying with the active ingredient prepared as described above. Plants, used as controls, are treated with the mixture of acetone/tween/DMSO/water not containing the active material. After 24 hours, the plants are contaminated by spraying the leaves with an aqueous suspension of Pyrenophora teres spores (12 000 spores per mL). The spores are collected from a 12-day-old culture. […] Grading (% of efficacy) is carried out 14 days after the contamination, in comparison with the control plants.

[6] = test system: Septoria tritici; experiment: In vivo preventive test on Septoria tritici (wheat); settings: wheat plants, 24 days after contamination
Description: In Vivo Preventive Test on Septoria tritici (Wheat) […] Wheat plants (“Scipion” variety), sown in starter cups on a 50/50 peat soil pozzolana substrate and grown at 22° C., are treated at the 1 leaf stage (10 cm height) by spraying with the active ingredient prepared as described above. Plants, used as controls, are treated with the mixture of acetone/tween/DMSO/water not containing the active material. After 24 hours, the plants are contaminated by spraying the leaves with an aqueous suspension of cryopreserved Septoria tritici spores (500 000 spores per mL). The contaminated wheat plants are incubated for 72 hours at 18° C. and at 100% relative humidity, and then for 21 days at 90% relative humidity. Grading (% of efficacy) is carried out 24 days after the contamination, in comparison with the control plants.

[7] = test system: Sphaerotheca fuliginea; experiment: In vivo preventive test on Sphaerotheca fuliginea (powdery mildew on cucurbits); settings: gherkin plants, 12 days after contamination
Description: In Vivo Preventive Test on Sphaerotheca fuliginea (Powdery Mildew on Cucurbits) […] Gherkin plants (“Vert petit de Paris” variety), sown in starter cups on a 50/50 peat soil-pozzolana substrate and grown at 24° C., are treated at the Z11 cotyledon stage by spraying with the active ingredient prepared as described above. Plants, used as controls, are treated with the mixture of acetone/tween/DMSO/water not containing the active material. After 24 hours, the plants are contaminated by spraying the cotyledons with an aqueous suspension of Sphaerotheca fuliginea spores (100 000 spores per mL). The spores are collected from infected plants. […] Grading (% of efficacy) is carried out 12 days after the contamination, in comparison with the control plants.

Row | SMILES | logP [1] | Efficacy ([2]; 100 ppm of active ingredient) [%] | Efficacy ([3]; 100 ppm of active ingredient) [%] | Efficacy ([4]; 100 ppm of active ingredient) [%] | Efficacy [5] [%] | Efficacy ([6]; 500 ppm of active ingredient) [%] | Efficacy ([4]; 500 ppm of active ingredient) [%] | Efficacy ([2]; 500 ppm of active ingredient) [%] | Efficacy ([7]; 500 ppm of active ingredient) [%] | Efficacy ([3]; 500 ppm of active ingredient) [%] | Efficacy ([6]; 100 ppm of active ingredient) [%] | Efficacy ([7]; 100 ppm of active ingredient) [%]
1 | Cn1cc(C(=O)N(Cc2ccccc2-c2ccco2)C2CC2)c(C(F)F)n1 [I.31] | 2.96 | 81 | – | – | – | – | – | – | – | – | – | –
2 | Cn1ccc(-c2ccccc2CN(C(=O)c2c(C(F)F)nn(C)c2F)C2CC2)c1 [I.49] | 3.25 | – | – | – | – | 96 | 100 | 99 | 78 | – | – | –
3 | Cn1cc(-c2ccc(Cl)cc2CN(C(=O)c2c(C(F)F)nn(C)c2F)C2CC2)cn1 [I.55] | 2.80 | – | – | – | – | 95 | 99 | – | 100 | 95 | – | –
4 | Cn1cc(-c2ccc(F)cc2CN(C(=O)c2c(C(F)F)nn(C)c2F)C2CC2)cn1 [I.56] | 2.50 | – | – | – | – | 100 | 85 | – | 98 | 78 | – | –
5 | Cc1ccc(-c2cnn(C)c2)c(CN(C(=O)c2cn(C)nc2C(F)F)C2CC2)c1 [I.59] | 2.37 | 81 | – | – | – | – | – | – | – | – | – | –
6 | Cn1nc(C(F)F)c(C(=O)N(Cc2ccccc2-c2cccs2)C2CC2)c1F [I.69] | 3.64 | – | – | – | – | 97 | 100 | – | 100 | 94 | – | –
7 | Cn1cc(C(=O)N(Cc2ccccc2-c2ccsc2)C2CC2)c(C(F)F)n1 [I.70] | 3.17 | – | – | – | – | 86 | 96 | – | 85 | 78 | – | –
8 | Cn1nc(C(F)F)c(C(=S)N(Cc2ccccc2-c2cccs2)C2CC2)c1F [I.75] | 4.29 | – | – | – | – | 86 | 100 | 100 | 90 | 94 | – | –
9 | CC(c1ccccc1-c1ccsc1)N(C(=O)c1c(C(F)F)nn(C)c1F)C1CC1 (stereo not drawn) [I.82] | 3.78 | 97 | 81 | – | – | – | – | – | – | – | 97 | 98
10 | Cc1ccc(-c2cscc2C)c(CN(C(=O)c2c(C(F)F)nn(C)c2F)C2CC2)c1 [I.108] | 4.25 | 100 | – | – | – | – | – | – | – | – | 86 | 75
11 | COc1ccsc1-c1cc(F)ccc1CN(C(=O)c1c(C(F)F)nn(C)c1F)C1CC1 [I.122] | 3.70 | – | – | – | – | 100 | 100 | 100 | 100 | 98 | – | –
12 | COc1ccsc1-c1cc(Cl)ccc1CN(C(=O)c1c(C(F)F)nn(C)c1F)C1CC1 [I.123] | 4.14 | – | – | – | – | 94 | 99 | 100 | 100 | 94 | – | –
13 | COc1ccsc1-c1ccc(C)cc1CN(C(=O)c1c(C(F)F)nn(C)c1F)C1CC1 [I.125] | 3.83 | 78 | 81 | – | – | – | – | – | – | – | 96 | 95
14 | Cn1cc(C(=O)N(Cc2cc(Cl)ccc2-c2ccc(Cl)s2)C2CC2)c(C(F)F)c1 [I.146] | 4.85 | – | – | – | – | – | – | 100 | – | – | – | –
15 | Cc1ccc(-c2ccsc2Cl)c(CN(C(=O)c2c(C(F)F)nn(C)c2F)C2CC2)c1 [I.150] | 4.26 | 90 | 81 | – | – | – | – | – | – | – | 80 | 100
16 | Cn1nc(C(F)F)c(C(=O)N(Cc2ccccc2-c2csc3ccccc23)C2CC2)c1F [I.156] | 4.27 | – | – | – | – | 96 | – | 97 | 95 | 81 | – | –
17 | Cn1nc(C(F)F)c(C(=O)N(Cc2ccc(F)cc2-c2csc3ccccc23)C2CC2)c1F [I.158] | 4.44 | – | – | – | – | 98 | 91 | 100 | 100 | 81 | – | –
18 | Cn1nc(C(F)F)c(C(=O)N(Cc2ccccc2Oc2nc(Cl)cc(Cl)n2)C2CC2)c1F [I.168] | 3.50 | – | – | – | – | 80 | 99 | – | 83 | 81 | – | –

Further lines, with some results ahead:

Row | logP [1] | SMILES | Efficacy ([2]; 100 ppm of active ingredient) [%] | Efficacy ([3]; 100 ppm of active ingredient) [%] | Efficacy ([4]; 100 ppm of active ingredient) [%] | Efficacy [5] [%] | Efficacy ([6]; 500 ppm of active ingredient) [%] | Efficacy ([4]; 500 ppm of active ingredient) [%] | Efficacy ([2]; 500 ppm of active ingredient) [%] | Efficacy ([7]; 500 ppm of active ingredient) [%] | Efficacy ([3]; 500 ppm of active ingredient) [%] | Efficacy ([6]; 100 ppm of active ingredient) [%] | Efficacy ([7]; 100 ppm of active ingredient) [%]
19 | 3.31 | Cn1nc(C(F)F)c(C(=O)N(Cc2ccccc2-c2ccco2)C2CC2)c1F [I.32] | 94 | 88 | 74 | – | – | – | – | – | – | – | –
20 | 4.01 | Cn1nc(C(F)F)c(C(=O)N(Cc2cc(-c3ccco3)ccc2Cl)C2CC2)c1Cl [I.35] | 94 | – | – | – | – | – | – | – | – | – | –
21 | 3.44 | Cn1cc(C(=O)N(Cc2cc(-c3ccco3)ccc2Cl)C2CC2)c(C(F)F)n1 [I.36] | – | – | – | 71 | – | – | – | – | – | – | –
22 | 2.71 | Cc1ccc(-c2cnn(C)c2)c(CN(C(=O)c2c(C(F)F)nn(C)c2Cl)C2CC2)c1 [I.57] | – | – | – | 79 | – | – | – | – | – | – | –
23 | 3.99 | Cn1nc(C(F)F)c(C(=O)N(Cc2cc(Cl)ccc2-c2ccsc2)C2CC2)c1F [I.66] | – | – | – | – | – | 100 | 91 | 95 | 94 | – | –
24 | 3.78 | Cn1nc(C(F)F)c(C(=O)N(Cc2ccccc2-c2cccs2)C2CC2)c1Cl [I.78] | – | – | – | – | 83 | 85 | 78 | – | – | – | –
25 | 3.68 | Cn1cc(C(=O)N(Cc2cc(-c3cccs3)ccc2Cl)C2CC2)c(C(F)F)n1 [I.84] | 100 | – | – | – | – | – | – | – | – | 71 | –
26 | 4.51 | Cn1nc(C(F)F)c(C(=O)N(Cc2ccccc2-c2ccc(Cl)s2)C2CC2)c1Cl [I.141] | – | – | – | – | 83 | – | 90 | – | 86 | – | –
27 | 4.41 | Cn1cc(C(=O)N(Cc2cc(-c3ccc(Cl)s3)ccc2Cl)C2CC2)c(C(F)F)n1 [I.144] | – | – | – | – | 100 | 94 | 98 | – | 75 | – | –
28 | 5.06 | Cn1nc(C(F)F)c(C(=O)N(Cc2cc(-c3ccc(Cl)s3)ccc2Cl)C2CC2)c1Cl [I.145] | 100 | – | – | – | 94 | 100 | – | – | 88 | – | –
